#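 Method: 48-hour compound exposure of cells in 96-well plates, five concentrations, linear interpolation of endpoints. GI50: concentration for 50% inhibition of growth. The concentration for full growth arrest is given as TGI.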 Residues, ends and D or L forms follow the SMILES beside them. *: point of attachment. Boc = CC(C)(C)OC(=O)*; OBn = c1ccc(CO*)cc1
# Assays:
# Assay in all cases: NCI tumour cell line growth inhibition, 48 h
# MDA-N = test system: MDA-N
# MCF7 breast = test system: MCF7 breast
# SK-OV-3 ovarian = test system: SK-OV-3 ovarian
# OVCAR-4 ovarian = test system: OVCAR-4 ovarian
# OVCAR-5 ovarian = test system: OVCAR-5 ovarian
# RPMI-8226 leukemia = test system: RPMI-8226 leukemia
# SK-MEL-28 melanoma = test system: SK-MEL-28 melanoma
# EKVX NSCLC = test system: EKVX NSCLC
Structure (SMILES),TGI (MDA-N) [µM],TGI (MCF7 breast) [µM],TGI (SK-OV-3 ovarian) [µM],TGI (OVCAR-4 ovarian) [µM],TGI (OVCAR-5 ovarian) [µM],TGI (RPMI-8226 leukemia) [µM],TGI (SK-MEL-28 melanoma) [µM],TGI (EKVX NSCLC) [µM],GI50 (OVCAR-4 ovarian) [µM],GI50 (OVCAR-5 ovarian) [µM],GI50 (MCF7 breast) [µM],GI50 (SK-OV-3 ovarian) [µM],GI50 (RPMI-8226 leukemia) [µM],GI50 (SK-MEL-28 melanoma) [µM],GI50 (EKVX NSCLC) [µM]
CC(=O)c1cccc(NC(=O)C(=O)C(c2cnc3ccc([N+](=O)[O-])cc3n2)[N+](=O)[O-])c1 (configuration not stated),> 100,> 100,> 100,> 100,> 100,> 100,> 100,> 100,,,,,,,
Oc1ccccc1C1=NOC(c2ccc(C(F)(F)F)cc2)C1 (configuration not stated),> 50,> 50,> 50,> 50,> 50,> 50,> 50,> 50,,,,,,,
CC(C)(C)OC(=O)C1=C2C=C(O)C=CC2(C)N(Cc2ccccc2)C1=N (configuration not stated),20.2,9.99,42.1,19.1,33.1,> 27.1,24.8,11.5,,,,,,,
O=c1[nH]nc(Cn2c3ccc(Br)cc3c3nc4ccccc4nc32)n1C1CCCCC1,> 100,> 100,> 100,> 100,> 100,77.6,59.2,> 100,,,,,,,
O=c1c2cc(I)ccc2nc(SCc2n[nH]c(=S)o2)n1Cc1ccccc1,32,31.7,62.3,44.4,52.4,> 100,32.3,40.8,,,,,,,
CC(C)CC(NC(=O)OC(C)(C)C)C(=O)N1CCCC1C(=O)OCc1ccccc1 (stereo not drawn) (Boc-Leu-Pro-OBn; configuration not given here),> 100,> 100,> 100,> 100,> 100,,> 100,> 100,,,,,,,
O=C1c2ccccc2CC12Cc1ccccc1C2,> 100,> 100,> 100,> 100,> 100,> 100,> 100,78.3,,,,,,,
N#Cc1c(Cl)nc2ccccc2c1N=[N+]=[N-],26.8,22.5,29,4.24,15.2,7.89,9.11,5.53,,,,,,,
CN(C)c1ccc(-c2ccc(N(C)C)c3n[se]nc23)c2n[se]nc12,> 100,> 100,> 100,> 100,> 100,> 100,> 100,> 100,,,,,,,
N=C(N)c1ccc(-c2ccc(-c3cccs3)s2)s1,,,,4.16,2.52,,,,1.33,1.21,,,,,
CCCCCCOc1ccc(C(=O)N(C)O)cc1,> 100,> 100,> 97.1,> 100,> 100,46.6,> 100,> 100,,,,,,,
Cc1nn2c(C(=O)N/N=C/c3ccc([N+](=O)[O-])cc3)c(C)nc2s1,> 100,> 100,87,> 100,> 100,,> 100,> 100,,,,,,,
Cc1sc(C)c2c1C(=O)CC2N (configuration not stated),> 57.4,,> 100,> 75.6,> 100,49.2,> 62.5,> 100,,,,,,,
O=C(O)C1(Cc2ccc3c(c2)CCC3)Cc2ccccc2C1,> 100,> 100,> 100,> 100,> 100,> 100,> 100,> 100,,,,,,,
O=c1oc2ccc(Cl)cc2cc1-c1cn2ccccc2n1,> 100,99.2,6.52,29.8,> 100,> 100,> 100,> 100,,,,,,,
N#Cc1nc(-c2ccccn2)oc1N,> 100,> 100,> 100,> 100,> 100,> 100,> 100,> 100,,,,,,,
COc1ccc(/C=C2/NC(=S)N=C2Cl)cc1,> 100,> 100,> 100,> 100,37.9,> 100,> 100,> 100,,,,,,,
CN(C)CCn1c(=O)c2ccc3c4c(nn3CCN(C)C)c3cc([N+](=O)[O-])ccc3n(c1=O)c24,0.243,0.65,0.959,0.223,0.448,0.397,2.93,0.434,,,,,,,
COC(=O)C1=C(C(=O)OC)SC(=C2S[C@@H]3[C@@H]4C[C@H]([C@@H]3S2)[C@H]2C(=O)OC(=O)[C@@H]42)S1,,> 100,,> 100,> 100,> 100,> 100,> 100,,,,,,,
CCN(CC)c1ccc2cc(-c3nnc(-c4ccccc4O)o3)c(=O)oc2c1,30.7,> 100,> 100,27.5,35,> 100,32.3,43.4,,,,,,,
O=C(NCCN1CCCCC1)c1ccc(I)cc1,> 100,> 100,> 100,> 100,> 100,> 100,> 100,> 100,,,,,,,
Clc1ccc(-c2ccc(-c3nnc(COc4ccc(OCc5nnc(-c6ccc(-c7ccc(Cl)cc7Cl)o6)o5)c(Cl)c4)o3)o2)c(Cl)c1,> 100,> 100,,> 100,> 100,> 100,> 100,> 100,,,,,,,
Cc1ccc(N2CCN(CCC(=O)O)CC2)cc1,,> 100,> 100,> 100,> 100,> 100,> 100,> 100,,,,,,,
N#Cc1c(O)c(N=Nc2ccc(Cl)cc2)c(=O)n2c1[nH]c1ccccc12,> 100,> 100,> 100,> 100,> 100,85.5,> 100,> 100,,,,,,,
Nc1nc2ccc(OCC(O)CN3CCCCC3)cc2[n+]([O-])n1 (configuration not stated),> 100,> 100,,> 100,> 100,> 100,> 100,,,,,,,,
C=C(C)C(O)C(O)C[C@@H](C)C1CC[C@]23C[C@]12CCC1[C@@]2(C)CCC(OC(C)=O)C(C)(C)C2CC(OC2OC(CO)C(O)C(O)C2O)[C@]13C (some centres not stated),31.1,31,45.7,41.8,45.9,46.5,37.1,> 100,,,,,,,

Structure (SMILES),TGI (MDA-N) [µM],TGI (MCF7 breast) [µM],TGI (SK-OV-3 ovarian) [µM],TGI (OVCAR-4 ovarian) [µM],TGI (OVCAR-5 ovarian) [µM],TGI (RPMI-8226 leukemia) [µM],TGI (SK-MEL-28 melanoma) [µM],TGI (EKVX NSCLC) [µM],GI50 (OVCAR-4 ovarian) [µM],GI50 (OVCAR-5 ovarian) [µM],GI50 (MCF7 breast) [µM],GI50 (SK-OV-3 ovarian) [µM],GI50 (RPMI-8226 leukemia) [µM],GI50 (SK-MEL-28 melanoma) [µM],GI50 (EKVX NSCLC) [µM]
NC(=O)/C=c1/c2ccccc2n2nc3ccccc3c12,35.6,> 100,59.3,39.4,77.8,29.1,33.9,42.7,,,,,,,
CN(C)C=NCCN1CCOCC1,> 100,> 100,> 100,> 100,> 100,> 100,> 100,> 100,,,,,,,
O=[N+]([O-])/C(C(Cl)=C(Cl)Cl)=C(\Nc1ccccc1)n1nnc2ccccc21,> 100,> 100,> 100,35,> 100,93,> 100,> 100,,,,,,,
C=C1C(=O)OC2CC(=C)C3CC=C(C)C3CC12 (configuration not stated),30.6,55.3,80,> 100,> 100,> 100,77.3,> 100,,,,,,,
CC1(C)C2CC3C4CC5(Nc6ccccc6C5N41)[C@]3(C)CC2=O (some centres not stated),> 50,> 50,,> 50,> 50,> 50,> 50,> 50,,,,,,,
O=C(CCCl)NNC1=NCCCCN1,> 100,> 100,> 100,> 100,> 100,> 100,> 100,> 100,,,,,,,
COC(=O)c1c[nH]c2c1-c1cc(C(=O)OCc3ccccc3)n(S(=O)(=O)c3ccc(C)cc3)c1C(=O)C2=O,,0.379,3.1,1.08,2.9,2.83,0.244,0.291,,,,,,,
O=C1N[C@@H]2c3c(Br)sc(Br)c3C(=O)[C@@H]2O1,6.44,12.6,32.7,3.43,27,25.4,6.64,4.44,,,,,,,
CN1C=Cc2nccc3cc4c(c1c23)OCO4,8.62,> 23.6,61.6,47.5,66.3,30.7,39.2,13.8,,,,,,,
CC(C)C(C/C=C1/CC(CO)(COC(=O)c2ccccc2)OC1=O)C(C)C (configuration not stated),31.2,39,> 100,30,31.2,,27.8,35.9,,,,,,,
CCOC(=O)/C=C/[C@H](O)[C@@H](O)/C=C/C(=O)OCC,> 100,79.7,> 100,> 100,> 100,44.6,44.3,58.8,,,,,,,
COc1cc(S(=O)(=O)Nc2ccc(-c3csc(N4C(=O)C(Cl)C4c4ccccc4)n3)cc2)ccc1Cl (configuration not stated),> 100,> 100,> 100,87.3,> 100,> 100,> 100,94.4,,,,,,,
O=C(O)CNn1c(SCC(=O)O)nnc(/C=C/c2c(O)ccc3ccccc23)c1=O,> 100,> 100,> 100,> 100,> 100,> 100,> 100,66.2,,,,,,,
Cc1c(N/C=C(\C#N)C(=O)c2ccc(Cl)cc2)c(=O)n(-c2ccccc2)n1C,> 100,> 100,> 100,> 100,> 100,> 100,> 100,> 100,,,,,,,
COC(=O)C1=CN(C2CCCCC2)C2(c3ccccc3)c3ccccc3C(=O)OC(=O)C12 (configuration not stated),> 100,> 100,> 100,> 100,> 100,,> 100,> 100,,,,,,,
O=C(N/N=C/c1ccccc1O)c1ccccc1Nc1ccccc1C(=O)N/N=C/c1ccccc1O,> 100,> 100,> 100,> 100,> 100,,0.865,> 100,,,,,,,
O=C(O)CN1CCN(CC(=O)N2CCN(C(=O)OCc3ccccc3)CC2)CCN(CC(=O)O)CCN(CC(=O)N2CCN(C(=O)OCc3ccccc3)CC2)CC1,,> 100,> 100,> 100,> 100,> 100,> 100,> 100,,,,,,,
SCc1ccc(CS)s1,> 100,> 100,> 100,> 100,> 100,,> 100,> 100,,,,,,,
O=C(Cc1nc2ncccc2[nH]c1=O)c1c[nH]c2ccccc12,45.4,32.3,29.8,,59.2,91.8,32.8,56.9,,,,,,,
N#Cc1c(O)cc(=O)n2c1[nH]c1ccccc12,> 100,> 100,> 100,> 100,> 100,> 100,,> 100,,,,,,,
COC(=O)c1ccccc1/C=C1\Cc2c(C)cc(C)cc2C1=O,> 100,> 100,,> 100,,> 100,> 100,> 100,,,,,,,
NCCSCc1ccccc1Cl,> 100,,,> 100,> 100,,> 100,> 100,,,,,,,
Cc1ccc(N=NN(C)C(=O)C(C)N)cc1 (configuration not stated),> 100,> 100,,> 100,> 100,> 100,> 100,> 100,,,,,,,
COc1ccc(N=Nc2c(C)c(C#N)c(=S)n(C3OC(CO)C(O)C(O)C3O)c2C)cc1 (configuration not stated),> 100,> 100,> 100,> 100,> 100,> 100,> 100,,,,,,,,
COC(=O)[C@@H](Cc1ccccc1)N1O[C@]12CCCC[C@@H]2NC(=O)OC(C)(C)C (some centres not stated),39.1,28.5,,> 100,71.7,> 100,60.7,82.3,,,,,,,
COc1cc(-c2n/c(=C\c3c(O)[nH]c4cc(Cl)ccc34)cc3c2=Nc2ccccc2-3)cc(OC)c1OC,,13.6,11.3,6.36,> 100,> 100,13.8,27.1,2.59,18.3,2.71,3.8,67.1,4.05,4.99

# Source: PubChem BioAssay (NCI)
